Test results from patent publication US8728797B2, “Yeast membrane protein expression system and its application in drug screening” (priority 2001, dated 2014).
Marks after values point to notes of the source that are not given here.

Assays:
Pdr5p ATPase = target: T1, Pdr5p ATPase (Saccharomyces cerevisiae, UniProt P33302); experiment: Oligomycin sensitive ATPase activity of AD124567 plasma membranes; type: biochemical, S. cerevisiae
T1 construct: plasma membranes from the AD124567 yeast strain overexpressing Pdr5p; endogenous in cells; host or cells: S. cerevisiae AD124567 (pdr1-3, PDR5 intact), plasma membrane fraction
T1 sequence (P33302 whole entry): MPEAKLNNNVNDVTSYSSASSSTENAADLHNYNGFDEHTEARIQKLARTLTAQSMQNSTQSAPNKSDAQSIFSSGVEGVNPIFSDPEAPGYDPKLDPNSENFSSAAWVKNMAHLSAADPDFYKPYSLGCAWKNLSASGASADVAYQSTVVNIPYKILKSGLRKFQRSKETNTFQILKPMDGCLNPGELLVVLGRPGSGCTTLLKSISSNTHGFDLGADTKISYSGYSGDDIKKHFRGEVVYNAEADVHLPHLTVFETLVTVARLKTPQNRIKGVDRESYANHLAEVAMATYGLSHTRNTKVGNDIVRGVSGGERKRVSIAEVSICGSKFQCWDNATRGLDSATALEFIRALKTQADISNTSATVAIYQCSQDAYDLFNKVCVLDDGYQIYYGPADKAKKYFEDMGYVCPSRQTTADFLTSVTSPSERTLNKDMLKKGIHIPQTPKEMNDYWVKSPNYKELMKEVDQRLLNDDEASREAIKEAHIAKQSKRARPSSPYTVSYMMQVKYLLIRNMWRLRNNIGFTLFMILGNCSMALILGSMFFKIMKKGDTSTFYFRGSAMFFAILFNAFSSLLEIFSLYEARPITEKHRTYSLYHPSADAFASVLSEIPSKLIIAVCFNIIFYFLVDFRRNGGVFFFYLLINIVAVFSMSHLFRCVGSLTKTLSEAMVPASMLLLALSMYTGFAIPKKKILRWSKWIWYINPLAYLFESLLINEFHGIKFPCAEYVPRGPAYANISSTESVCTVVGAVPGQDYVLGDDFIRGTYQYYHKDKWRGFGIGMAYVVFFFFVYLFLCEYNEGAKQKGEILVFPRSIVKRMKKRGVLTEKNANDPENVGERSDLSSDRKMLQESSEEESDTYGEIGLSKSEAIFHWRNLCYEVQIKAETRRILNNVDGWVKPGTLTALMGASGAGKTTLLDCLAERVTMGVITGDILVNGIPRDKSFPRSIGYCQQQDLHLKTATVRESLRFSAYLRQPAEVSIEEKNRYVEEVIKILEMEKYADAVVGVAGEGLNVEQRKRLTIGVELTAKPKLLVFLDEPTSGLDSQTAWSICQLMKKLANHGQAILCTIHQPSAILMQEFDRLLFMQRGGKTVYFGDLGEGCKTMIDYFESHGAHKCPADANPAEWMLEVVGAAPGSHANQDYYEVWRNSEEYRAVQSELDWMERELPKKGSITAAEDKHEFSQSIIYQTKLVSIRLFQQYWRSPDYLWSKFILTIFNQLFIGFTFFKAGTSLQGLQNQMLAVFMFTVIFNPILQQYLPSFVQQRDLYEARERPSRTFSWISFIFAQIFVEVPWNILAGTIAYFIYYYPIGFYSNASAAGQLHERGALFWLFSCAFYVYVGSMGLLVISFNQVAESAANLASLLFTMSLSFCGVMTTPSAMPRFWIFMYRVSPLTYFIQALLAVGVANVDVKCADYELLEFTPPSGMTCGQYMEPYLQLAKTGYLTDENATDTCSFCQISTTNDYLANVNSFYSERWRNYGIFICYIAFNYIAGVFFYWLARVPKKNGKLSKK
Procedure: (A) Inhibition profiles of oligomycin-sensitive Pdr5p ATPase activity by the purified peptides D-NH2-asparagine-tryptophan-tryptophan-lysine-valine-arginine-arginine-arginine-CONH2 (KN0) and its singly substituted Mtr-derivative KN20. (B) Inhibition profile with KN20 on the oligomycin-sensitive Cdr1p ATPase activity of plasma membranes from AD1002 minus the oligomycin-sensitive ATPase activity of plasma membranes from the isogenic AD1-8u^− strain.
Yeast were grown in YEPD, pH 5.5 at 30° C. until they reached late-exponential phase of growth (OD600 nm=7), washed twice in ice-cold distilled water, and incubated on ice for 30 min to minimize glucose-stimulated Pma1p activity. Cells were resuspended in homogenising medium (50 mM Tris pH 7.5, 2 mM EDTA and 1 mM phenylmethylsulfonyl fluoride) and disrupted using a Braun Homogeniser. Cell debris and unbroken cells were removed by centrifuging at 2,000×g at 4° C. for 10 min. A crude membrane fraction was isolated from the cell-free supernatant by centrifuging at 30,000×g at 4° C. for 45 min. Plasma membranes were prepared by centrifugation of the supernatant obtained after selective precipitation of mitochondria at pH 5.2 as described previously (Goffeau, A. and Dufour, J. P., 1988). […] Protein was determined using a micro-Bradford (Bio-Rad Laboratories, Hercules, Calif. [Bradford, M. M., 1976]) assay with gamma-globulin as standard. Nucleotide triphosphatase activity was measured by incubating the plasma membrane fractions (10 μg) at 30° C. in a final volume of 120 μl containing 6 mM NTP, 7 mM MgSO4 in 59 mM MES-Tris buffer pH 6.0-8.0. […] Other ATPase inhibitors (20 μM oligomycin, 20 μM aurovertin B or 100 μM vanadate were added to the reaction where indicated. After 30 min the reaction was stopped by adding 130 μl of a solution containing 1% (w/v) SDS, 0.6 M H2SO4, 1.2% (w/v) ammonium molybdate and 1.6% (w/v) ascorbic acid. Inorganic phosphate released from NTPs was measured at 750 nm after 10 min incubation at room temperature.

C. albicans FR2 (Ben^Rp) = experiment: Checkerboard chemosensitisation to fluconazole; type: cell-based
Procedure: (§1) Checkerboard drug susceptibility assays were used to measure the chemosensitisation of cells to fluconazole by test compounds such as Pdr5p inhibitors. Fluconazole concentration in the CSM-URA medium was varied in one dimension (between 0 and 80 μg/ml) and the concentration of the test compound was varied in the second dimension (between 0 and 40 μM). Cell inocula, growth conditions and the optical determination of growth were identical to standard liquid MIC determinations. The assays were conducted in 6 by 6 well arrays centred in a 96 well microtitre plate using buffered CSM-URA medium at pH 7.0, with fluconazole and/or peptide included in each well at the indicated concentration.

C. dubliniensis CD36 = experiment: Checkerboard chemosensitisation to fluconazole; type: cell-based
Procedure: as §1

C. glabrata CBS138 = experiment: Checkerboard chemosensitisation to fluconazole; type: cell-based
Procedure: as §1

C. krusei B2399 = experiment: Checkerboard chemosensitisation to fluconazole; type: cell-based
Procedure: as §1

C. tropicalis IFO0618 = experiment: Checkerboard chemosensitisation to fluconazole; type: cell-based
Procedure: as §1

[1] = system: S. cerevisiae 1B (CgCdr1p); experiment: Checkerboard chemosensitisation to fluconazole; type: cell-based
Procedure: as §1

[2] = system: S. cerevisiae 27A (CaCdr2p); experiment: Checkerboard chemosensitisation to fluconazole; type: cell-based
Procedure: as §1

[3] = system: S. cerevisiae 4 (CgPdh1p); experiment: Checkerboard chemosensitisation to fluconazole; type: cell-based
Procedure: as §1

[4] = system: S. cerevisiae AD12345678u-; experiment: Checkerboard chemosensitisation to fluconazole; type: cell-based
Procedure: as §1

[5] = system: S. cerevisiae AD124567 (Pdr5p); experiment: Checkerboard chemosensitisation to fluconazole; type: cell-based
Procedure: (A) Checkerboard drug susceptibility assay of AD124567 in the presence of the indicated concentrations of fluconazole and KN20. (B) Disk drug susceptibility assay of AD124567. This assay was conducted, as described in Materials and methods for example 4, in the absence or presence of fluconazole (120 μg/ml), and in the presence of (1) KN0 (47 nanomole), (2) KN20 (47 nanomole) or (0) control amounts of DMSO applied to disks
as §1

C. albicans ATCC10261 = experiment: Checkerboard chemosensitisation to fluconazole; type: cell-based
Procedure: (§2) (A) Checkerboard drug susceptibility assay of AD1002. This assay was conducted as described in Materials and methods in the presence of the indicated concentrations of fluconazole and KN20. (B) Disk drug susceptibility assay of AD1002. This assay was conducted, as described in Materials and methods for Example 4, in the absence or presence of 5 μg/ml fluconazole, with (1) KN0 (12 nanomole), (2) KN20 (12 nanomole) or (0) control amounts of DMSO applied to the disks. (C) Checkerboard drug susceptibility assay of ATCC 10261. This assay was conducted, as described in Material and methods for Example 4, in the presence of the indicated concentrations of fluconazole and KN20. D indicates cell death as measured by a failure to recover any colony forming units when samples from microtitre plate wells were cultured on solid YPD medium.
as §1

[6] = system: S. cerevisiae AD1002 (CaCdr1p); experiment: Checkerboard chemosensitisation to fluconazole; type: cell-based
Procedure: as §2, §1

[7] = system: S. cerevisiae AD-BEN^R (Ben^Rp); experiment: Checkerboard chemosensitisation to fluconazole; type: cell-based
Procedure: (§3) The assays were conducted, as described in Materials and methods for Example 4, in the presence of the indicated concentrations of fluconazole and KN20. D indicates cell death as measured by a failure to recover any colony forming units when samples from microtitre plate wells were cultured on solid YPD medium.
as §1

[8] = system: S. cerevisiae AD-ERG11 (Erg11p); experiment: Checkerboard chemosensitisation to fluconazole; type: cell-based
Procedure: as §3, §1

**Q.** For `OC(Cn1cncn1)(Cn1cncn1)c1ccc(F)cc1F` [fluconazole], which “effect on oligomycin sensitive Pdr5p ATPase activity” value (Pdr5p ATPase; in vitro) is on record?
**A.** does not affect

**Q.** What about the “Chemosensitising concentration FCZ” value (C. albicans FR2 (Ben^Rp); with KN20) of the same molecule?
**A.** 8 µg/mL

**Q.** And the “Chemosensitising concentration FCZ” value (C. dubliniensis CD36)?
**A.** 0.31 µg/mL

**Q.** What about the “Chemosensitising concentration FCZ” value (C. glabrata CBS138) of the same molecule?
**A.** 20 µg/mL

**Q.** What about the “Chemosensitising concentration FCZ” value (C. krusei B2399) of the same molecule?
**A.** 80 µg/mL

**Q.** What about the “Chemosensitising concentration FCZ” value (C. tropicalis IFO0618) of the same molecule?
**A.** 10 µg/mL

**Q.** And the “Chemosensitising concentration FCZ” value ([1]; with KN20)?
**A.** 40 µg/mL

**Q.** And the “Chemosensitising concentration FCZ” value ([2]; with KN20)?
**A.** 20 µg/mL

**Q.** And the “Chemosensitising concentration FCZ” value ([3]; with KN20)?
**A.** 1.25 µg/mL

**Q.** And the “Chemosensitising concentration FCZ” value [4]?
**A.** 0.125 µg/mL

**Q.** What about the “Chemosensitising concentration FCZ” value [5] of the same molecule?
**A.** 60 µg/mL

**Q.** And the “Chemosensitising concentration FCZ” value (C. albicans ATCC10261)?
**A.** 2 µg/mL

**Q.** What about the “Chemosensitising concentration FCZ” value ([6]; AD1002 (CaCdr1p), with KN20) of the same molecule?
**A.** 10 µg/mL

**Q.** And the “Chemosensitising concentration FCZ” value ([7]; with KN20)?
**A.** 3.75 µg/mL

**Q.** What about the “Chemosensitising concentration FCZ” value [8] of the same molecule?
**A.** 0.25 µg/mL

**Q.** With “D-octapeptide NH2-Asn-Trp-Trp-Lys-Val-Arg-Arg-Arg-CONH2 with a single 4-methoxy-2,3,6-trimethylbenzenesulphonyl (Mtr) substituent on one tryptophan sidechain; Pdr5p inhibitor [KN20]” as the molecule, how does the IC50 (Pdr5p ATPase; plasma membranes from AD124567 overexpressing Pdr5p, pH 7.5, read-out: 150 for oligomycin sensitive ATPase activity) read?
**A.** ~3 µM

**Q.** What about the “Chemosensitising concentration KN20” value (C. albicans FR2 (Ben^Rp)) of the same molecule?
**A.** 20 µM

**Q.** And the “Fold-sensitisation by KN20 (For FCZ MIC)” value (C. albicans FR2 (Ben^Rp))?
**A.** 4 fold

**Q.** And the “Chemosensitising concentration KN20” value (C. dubliniensis CD36; C. dubliniensis CD36)?
**A.** 80 µM

**Q.** And the “Fold-sensitisation by KN20 (For FCZ MIC)” value (C. dubliniensis CD36; C. dubliniensis CD36, resistant tail eliminated)?
**A.** 64.5^a fold

**Q.** What about the “Chemosensitising concentration KN20” value (C. glabrata CBS138; C. glabrata CBS138) of the same molecule?
**A.** 40 µM

**Q.** And the “Fold-sensitisation by KN20 (For FCZ MIC)” value (C. glabrata CBS138; C. glabrata CBS138)?
**A.** 4 fold

**Q.** And the “Chemosensitising concentration KN20” value (C. krusei B2399; C. krusei B2399)?
**A.** 80 µM

**Q.** And the “Fold-sensitisation by KN20 (For FCZ MIC)” value (C. krusei B2399; C. krusei B2399)?
**A.** 2.5 fold

**Q.** What about the “Chemosensitising concentration KN20” value (C. tropicalis IFO0618; C. tropicalis IFO0618) of the same molecule?
**A.** 10 µM

**Q.** And the “Fold-sensitisation by KN20 (For FCZ MIC)” value (C. tropicalis IFO0618; C. tropicalis IFO0618, resistant tail eliminated)?
**A.** 16^a fold

**Q.** What about the “Chemosensitising concentration KN20” value [1] of the same molecule?
**A.** 15 µM

**Q.** What about the “Fold-sensitisation by KN20 (For FCZ MIC)” value [1] of the same molecule?
**A.** 8 fold

**Q.** What about the “Chemosensitising concentration KN20” value [2] of the same molecule?
**A.** 20 µM

**Q.** What about the “Fold-sensitisation by KN20 (For FCZ MIC)” value [2] of the same molecule?
**A.** 4 fold

**Q.** And the “Chemosensitising concentration KN20” value [3]?
**A.** 20 µM

**Q.** What about the “Fold-sensitisation by KN20 (For FCZ MIC)” value [3] of the same molecule?
**A.** 16 fold

**Q.** What about the “Chemosensitising concentration KN20” value ([4]; S. cerevisiae AD12345678u-) of the same molecule?
**A.** 7.5 µM

**Q.** What about the “Fold-sensitisation by KN20 (For FCZ MIC)” value ([4]; S. cerevisiae AD12345678u-) of the same molecule?
**A.** 2 fold

**Q.** And the “Chemosensitising concentration KN20” value ([5]; AD124567 (Pdr5p))?
**A.** 20 µM

**Q.** And the “Fold-sensitisation by KN20 (For FCZ MIC)” value ([5]; AD124567 (Pdr5p))?
**A.** 10 fold

**Q.** And the “KN20 concentration that chemosensitised the Pdr5p overexpressing strain to fluconazole” value ([5]; pH 7)?
**A.** 30 µM

**Q.** And the “Chemosensitising concentration KN20” value (C. albicans ATCC10261; C. albicans ATCC10261)?
**A.** 80 µM

**Q.** And the “Fold-sensitisation by KN20 (For FCZ MIC)” value (C. albicans ATCC10261; C. albicans ATCC10261, resistant tail eliminated)?
**A.** 64^a fold

**Q.** And the “growth of AD1002 with KN20 alone” value ([6]; 10 μM KN20, without fluconazole, pH 7.0)?
**A.** completely resistant

**Q.** What about the “growth of AD1002 with fluconazole plus KN20” value ([6]; 10 μg/ml fluconazole plus 10 μM KN20) of the same molecule?
**A.** completely abolished growth

**Q.** And the “growth of AD1002 with KN20 alone” value ([6]; 20 μM peptide alone, 48 h)?
**A.** did not affect overall growth

**Q.** What about the “Chemosensitising concentration KN20” value ([6]; AD1002 (CaCdr1p)) of the same molecule?
**A.** 10 µM

**Q.** What about the “Fold-sensitisation by KN20 (For FCZ MIC)” value ([6]; AD1002 (CaCdr1p)) of the same molecule?
**A.** 4 fold

**Q.** And the “Chemosensitising concentration KN20” value [7]?
**A.** 20 µM

**Q.** And the “Fold-sensitisation by KN20 (For FCZ MIC)” value [7]?
**A.** 16 fold

**Q.** What about the “Chemosensitising concentration KN20” value ([8]; AD-ERG11 (Erg11p)) of the same molecule?
**A.** 20 µM

**Q.** And the “Fold-sensitisation by KN20 (For FCZ MIC)” value ([8]; AD-ERG11 (Erg11p))?
**A.** 8 fold
